Compound `CC1(C)C(C=Cc2cc(Br)cc([N+](=O)[O-])c2[O-])=[N+](Cc2ccccc2)c2ccccc21` returned a melting point of 208 °C. To `O=S(=O)(Cl)Cc1ccc(Br)cc1` belongs 117 to 121 °C; to `Nc1ccc(Cl)nc1`, 83 °C.

In turn, `COc1cc2c(c(O)c1OC)CCN(C)C2C` (stereo unspecified) showed a melting point of 152 °C. Then `Nc1nc(=O)[nH]cc1Br`, with 240 to 243 °C; and `S=C(c1ccc2c(c1)OCO2)N1CCOCC1`, with 154 °C; and `FC(F)(F)C(F)(F)C(F)(F)C(F)(F)C(F)(F)C(F)(F)OC(F)(F)C(F)(F)C(F)(F)C(F)(F)C(F)(F)C(F)(F)F`, with -90 °C. To `N#Cc1cc(/N=C/C=C/c2ccccc2)n(-c2c(Cl)cc(C(F)(F)F)cc2Cl)n1` belongs 160 °C; to `CC1(C)OC(=O)C(=Cc2ccc(-c3ccc([N+](=O)[O-])cc3)o2)C(=O)O1`, 221 °C; to `Oc1ccc(O)c(Br)c1`, 112 °C. `Cc1noc(C)c1-c1nc(CCl)no1` yielded a melting point of 88 to 90 °C.

As for `CC(=Nn1c(S)nnc1C(F)(F)F)c1ccc(C)cc1`, the melting point was 201 °C. For the compound `Clc1cc2oc3c(Cl)c(Cl)ccc3c2cc1Cl`, the melting point turned out to be 195 °C.

For `O=C1NCCN1`, the melting point came out at 131 °C. To `N#CC1CC2C=CC1C2` (stereo unspecified) belongs 13 °C. To `O=C(C=Cc1ccc(Br)cc1)c1ccc(Cl)cc1` belongs 167 to 168 °C; to `O=C(O)COc1nc(Cl)c(Cl)cc1Cl`, 150 °C. To `N#Cc1ccnc2ccccc12` belongs 104 °C; to `C#CC(=O)O`, 18 °C. In turn, `CNc1cnn(-c2cccc(C(F)(F)F)c2)c(=O)c1Cl` came in with a melting point of 184 °C.

`CC1=C(C)C(O)OC1=O` (stereo unspecified): the melting point turned out to be 82 °C.

In turn, `Nc1c(S/C=C/Cl)ccc2c1C(=O)c1ccccc1C2=O` returned a melting point of 180 °C. Compound `COc1ccc(C(=O)C(C#N)=C(SC)SC)cc1` showed a melting point of 60 to 62 °C. To `N=C1NC(=N)c2ccccc21` belongs 190 °C; to `CC(=O)Oc1ccccc1C(=O)OCC(=O)N(C)CC(N)=O`, 132 °C. To `CC=C1CCC2C3CCC4CC(OC(C)=O)CCC4(C)C3CCC12C` (stereo unspecified) belongs 118 to 120 °C; to `Cc1c(N)cccc1C(F)(F)F`, 39 °C. Then `O=C(c1ccccc1)c1ccc(O)c(O)c1`, with 144 to 148 °C; and `NC(=O)CCC(=O)O`, with 155 °C. With `Cc1cc(O)c([N+](=O)[O-])c(=O)[nH]1`, the melting point was in the range of 293 to 296 °C. The compound `CC(=O)Nc1cc(N)ccc1C` registered a melting point of 141 to 142 °C. Take `CN(C)c1ccc2c(c1)Sc1cc(N(C)C)ccc1N2C(=O)c1ccccc1`: the melting point is 195 °C. Then `Cc1ccc2cc(F)ccc2c1`, with 73 to 74 °C; and `Cc1cc(O)c(C(=O)c2ccccc2)cc1Cl`, with 138 to 142 °C; and `COc1ccc(P2(=S)Nn3c(nnc3C(F)(F)F)S2)cc1` (stereo unspecified), with 211 °C. Then `CC=NNc1ccc([N+](=O)[O-])cc1[N+](=O)[O-]`, with 166 °C. Then `CC12CC3CC(C)(C1)CC(C(=O)O)(C3)C2`, with 101 °C. With `O=c1c(O)c(O)c1=O`, the melting point came to 293 °C.

Regarding `OCCN1CCN(CCO)CC1`, the melting point came to 135 °C. Then `S=C=Nc1ccc2nsnc2c1`, with 96 to 97 °C. `O=C(CCCCl)c1ccc(Cl)cc1` had a melting point of 30 °C.

In turn, `Cc1c(C(=O)O)sc2c1CCCC2` returned a melting point of 218 °C. To `O=C(Cl)c1ccsc1` belongs 50 to 54 °C; to `CC(C)(C)c1cc(C(=O)O)n(Cc2ccccc2)n1`, 126 °C. Then `O=C(c1ccc(C(=O)C(Cl)(Cl)Cl)cc1)C(Cl)Cl`, with 136 °C; and `CC(=O)n1cc(C=O)c2ccccc21`, with 162 °C; and `Cc1c(C)c(C)c2c(c1C)CC1(OC2=O)C(=O)c2ccccc2C1=O`, with 257 °C.

As to `O=C1Cc2ccccc2CO1`, the melting point fell in the range of 82 to 83 °C.

`Cc1cc(N=Nc2ccccc2C)ccc1N`: the melting point is 101 to 102 °C. Then `Sc1nc2ccccc2o1`, with 192 to 195 °C; and `CC1=Nc2ccccc2C1(C)C#N` (stereo unspecified), with 73 °C. Regarding `OCC(F)(F)C(F)(F)C(F)(F)C(F)(F)CO`, the melting point came to 69 °C.

As to `O=C(O)c1ccc(OCc2ccccc2)cc1`, the melting point stood at 189 °C. Then `O=Cc1cc2nccnc2s1`, with 108 to 109 °C; and `CCOc1ccc(NC(=O)OC(C)C)cc1OCC`, with 100 °C.

Turning to `Nc1ccc(N)c2ccccc12`, the melting point stood at 120 °C. To `Nc1ccccc1CCc1ccccc1N` belongs 72 to 77 °C; to `N#Cc1cnc2ccccc2c1`, 109 °C. `O=C(O)CN(CC(=O)O)c1ccccc1` showed a melting point of 156 to 160 °C.

Consider `N#Cc1cccc(S(=O)(=O)Cl)c1`, for which the melting point worked out at 50 °C. In the case of `OCC1OC(OC2C(CO)OC(O)C(O)C2O)C(O)C(O)C1O` (stereo unspecified), the melting point is 256 to 258 °C. `O=C(Oc1ccc(Cl)cc1)c1ccc(C(=O)Oc2ccc(Cl)cc2)cc1` showed a melting point of 197 °C. To `Cc1c(C(N)=O)cc([N+](=O)[O-])cc1[N+](=O)[O-]` belongs 177 °C; to `O=C(CBr)c1ccc(OC(F)(F)F)cc1`, 55 to 58 °C. Then `CN(C)C(=O)N(C(=O)c1ccccc1)c1ccc(Cl)c(Cl)c1`, with 119 °C; and `CC(C)CCC#N`, with -51 °C. To `CC1(c2ccccc2)CC(C(=NOC(=O)Cc2ccccc2)c2cc3ccccc3o2)C1` (stereo unspecified) belongs 144 to 145 °C; to `C=C(C(=O)O)c1ccccc1`, 106 °C; to `Cc1ccc(C(=O)O)cc1Br`, 208 °C. For the compound `FCC(F)(F)C(F)F`, the melting point is -82 °C.

On to `N#CCc1nc2ccccc2s1`, for which the melting point amounted to 102 °C. To `OC(c1ccc(-c2ccc(C(O)(C(F)(F)F)C(F)(F)F)cc2)cc1)(C(F)(F)F)C(F)(F)F` belongs 125 to 126 °C; to `C=CCc1cc(C=O)c(O)c(OC)c1`, 48 to 52 °C. Then `COc1ccc(CC(=O)C(=O)O)cc1`, with 194 °C. To `Cc1cc(C(=O)O)c(C)o1` belongs 135 to 139 °C; to `N#CC(=CNc1ccc(O)cc1)c1ccccc1`, 150 °C.

On to `O=C(O)c1cccc(I)c1C(=O)O`, for which the melting point was 178 to 182 °C.

Take `O=[N+]([O-])c1cc2c3ccccc3ccc2c2ccccc12`: the melting point fell in the range of 210 to 213 °C. `COc1ccc(-c2ccc(S(=O)(=O)NC(C(=O)O)C(C)C)cc2)cc1` (stereo unspecified) displayed a melting point of 178 °C. Then `O=c1ccnc[nH]1`, with 163 to 168 °C; and `O=Cc1ccc(CN2C(=O)c3ccccc3C2=O)o1`, with 125 to 126 °C. Turning to `CC(=O)Nc1ccc([N+](=O)[O-])c(C(F)(F)F)c1`, the melting point was in the range of 108 to 109 °C.

As to `CC(=O)Oc1c(-c2ccccc2)n(C(C)=O)c2cc([N+](=O)[O-])c(/C(Cl)=C/c3ccccc3)cc12`, the melting point lay within 57 to 58 °C. Then `Nc1ccccc1N1CCCCC1`, with 46 °C. To `COC(=O)C1=C(C)NC(=O)NC1c1ccc2c(c1)OCO2` (stereo unspecified) belongs 239 to 241 °C; to `CCCC(O)CCC=CC=CC#CC#CC=CCO` (stereo unspecified), 87 °C; to `Brc1cc(Br)c(Oc2ccccc2)c(Br)c1`, 85 to 86 °C.

`O=C(O)c1c(F)cccc1C(F)(F)F` came in with a melting point of 88 to 89 °C. Then `C=C(C)[C@H]1CC=C(C)C(=O)C1`, with 89 °C. To `CC(C)(C)NC(=O)COC(=O)c1ccccc1` belongs 112 °C; to `CC(=O)c1cc(-c2ccc(Cl)cc2)oc1C`, 114 to 115 °C; to `CCCCCC(=O)OC`, -71 °C. Then `CCCCC(C)(O)CC` (stereo unspecified), with -83 °C; and `CCOC(=O)c1ccc(Cl)c([N+](=O)[O-])c1`, with 57 to 61 °C.

With `C=CC1(C)CC(OC(=O)CO)C2(C)C(C)CCC3(CCC(=O)C32)C(C)C1O` (stereo unspecified), the melting point amounted to 170 °C. Then `COc1ccc(-n2nc(C(=O)c3cccs3)sc2=N)cc1`, with 164 °C; and `c1ccc2c(c1)-c1ccccc1C2c1ccncc1`, with 142 to 145 °C; and `CC(C)=CC(=O)C=C(C)C`, with 28 °C. Then `Cc1ccc(S(=O)(=O)C#N)cc1`, with 48 °C; and `CCOC(=O)c1cc(-c2cccs2)on1`, with 48 to 51 °C; and `CC(=O)Nc1ccc(C=Cc2nc3cc([N+](=O)[O-])ccc3n2-c2ccc(C)cc2)cc1`, with 249 to 250 °C.

On to `CCCCCCSc1nc2ccc(NC(=O)COc3ccc(Cl)cc3Cl)cc2s1`, for which the melting point was 105 °C. Then `Cc1ccc(C(C)C(=O)O)cc1` (stereo unspecified), with 41 °C. Then `O=C(O)[C@H](Cc1ccccc1)NC(=O)C(F)(F)F`, with 126 to 127 °C. Turning to `CCOc1cc([N+](=O)[O-])c(OCC)cc1N1CCOCC1`, the melting point was in the range of 139 to 141 °C.

`O=C(O)C(c1ccccc1)C1CCCC1` (stereo unspecified) showed a melting point of 96 to 100 °C. To `CCOC(=O)C=Cc1ccc(OC)c(OC)c1Cl` belongs 68 to 69 °C; to `CN1CCN(CCCN2c3ccccc3Sc3ccc(C(F)(F)F)cc32)CC1`, 25 °C. As to `NS(=O)(=O)c1cc(Cl)cc(Cl)c1`, the melting point lay in the range of 170 to 172 °C.

Turning to `CCOC(=O)c1c(NC(=O)C(Cl)Cl)sc2c1CCCC2`, the melting point was 120 to 122 °C. To `COP(=O)(CN1C(=O)c2ccccc2C1=O)OC` belongs 118 °C.

The values are drawn from a melting point compilation (Tetko et al.).
